This is an account of results in patent US7414107B2, “Pharmacologically active peptide conjugates having a reduced tendency towards enzymatic hydrolysis” (priority 1998, dated 2008).

Where a SMILES comes first, the peptide text is derived from it. Bridges are numbered along the chain shown (N, C = ends). Where no end group is shown, it is not given here. [ ]: non-standard residue; d: D form. Dab = NCC[C@H](N)C(=O)O

For orientation: half-life means how long it takes for the measured level to halve.

Data set [1] has as its target T1, leucine aminopeptidase (Sus scrofa, UniProt P28839).
T1 construct: purchased Sigma, UK type III-CP (catalogue number not given); host or cells: porcine kidney
T1 sequence (P28839 1-519): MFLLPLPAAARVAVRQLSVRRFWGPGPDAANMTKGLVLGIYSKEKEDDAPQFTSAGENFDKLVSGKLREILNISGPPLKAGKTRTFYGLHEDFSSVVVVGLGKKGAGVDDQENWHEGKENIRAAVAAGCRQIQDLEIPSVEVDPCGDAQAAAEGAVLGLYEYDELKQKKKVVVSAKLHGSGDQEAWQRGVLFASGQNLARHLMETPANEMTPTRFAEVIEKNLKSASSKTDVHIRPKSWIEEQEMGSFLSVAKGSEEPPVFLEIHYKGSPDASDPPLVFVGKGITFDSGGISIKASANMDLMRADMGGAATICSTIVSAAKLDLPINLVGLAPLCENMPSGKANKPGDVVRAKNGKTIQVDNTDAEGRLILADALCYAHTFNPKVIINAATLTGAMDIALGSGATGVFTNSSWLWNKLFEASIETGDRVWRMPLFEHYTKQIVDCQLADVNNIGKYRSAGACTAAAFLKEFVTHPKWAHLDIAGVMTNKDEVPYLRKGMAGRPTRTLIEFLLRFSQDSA
Put plainly: Hydrolysis kinetics in leucine aminopeptidase solution. Format: in vitro ADME, porcine. The following applies: 50 mM phosphate buffer pH 7.4, 37° C., leucine aminopeptidase 25 U/ml; for half-life: pig. On the procedure:
(§1) Carboxypeptidase A (EC 3.4.17.1) type I from bovine pancreas, leucine aminopeptidase (EC 3.4.11.1) type III-CP from porcine kidney, α-chymotrypsin (EC […]) from bovine pancreas, and pepsin A (EC 3.4.23.1) from porcine stomach mucosa […] were obtained from Sigma, UK.
(§2) Gradient HPLC analysis of samples from in vitro kinetic measurements performed as described below was performed using a Hewlett Packard HP 1100 HPLC system consisting of a HP 1100 Binary Pump, a HPI 100 Autosampler, a HPI 100 Column Thermostat and a HP 1100 Variable Wavelength Detector. A Merck LiChroCART column (125×4 mm I.D.) and a LiChroCART precolumn (4×4 mm I.D.) packed with Lichrospher RP-18 (5 .μum particles) was used. The column was kept at 25° C. or 75° C. and the column effluent was measured by UV detection at 215 run. Separation of the peptide conjugates or the native peptides from degradation products and constituents of the reaction solutions was accomplished using gradient elution of the column with mixtures of mobile phase A (0.1 vol % TFA in water) and mobile phase B (0.085 vol % TFA in acetonitrile) at a flow rate of 1 ml/min.
(§3) The degradation of the peptide conjugate and the corresponding native peptide were studied at 37° C. in a 50 mM phosphate buffer solution at pH 7.4 containing leucine arninopeptidase (25 U/ml) or carboxypeptidase A (1 or 25 U/ml). Experiments were initiated by addition of an aliquot (100 μl) of a stock solution (1 mg/ml) of the peptide conjugate or the native peptide to 900 μl preheated enzyme solution giving a final concentration of ˜0.1 mg/ml (10^−5-10^−4M) of the peptide conjugate or the native peptide. The peptide/enzyme solution was kept at 37° C. using a SHT200D block heater from Stuart Scientific. At appropriate time intervals, samples of 100 μl were withdrawn from the peptide/enzyme solution, mixed thoroughly with 20 μl 25% TFA in acetonitrile in order to stop the enzymatic degradation process and analysed by HPLC as described above. Half-lives (t1/2) for the peptide conjugate and the corresponding native peptide in the enzyme solutions were calculated from plots of the natural logarithm to the concentration of the residual peptide (HPLC peak heights) against time using the formula t/2=1/kobs×ln(2), where kobs is the apparent first-order rate constant for the observed degradation.

The target in data set [2] is T2, carboxypeptidase A (Bos taurus, UniProt P00730).
T2 construct: purchased Sigma, UK type I (catalogue number not given); host or cells: bovine pancreas
T2 sequence (P00730 111-419): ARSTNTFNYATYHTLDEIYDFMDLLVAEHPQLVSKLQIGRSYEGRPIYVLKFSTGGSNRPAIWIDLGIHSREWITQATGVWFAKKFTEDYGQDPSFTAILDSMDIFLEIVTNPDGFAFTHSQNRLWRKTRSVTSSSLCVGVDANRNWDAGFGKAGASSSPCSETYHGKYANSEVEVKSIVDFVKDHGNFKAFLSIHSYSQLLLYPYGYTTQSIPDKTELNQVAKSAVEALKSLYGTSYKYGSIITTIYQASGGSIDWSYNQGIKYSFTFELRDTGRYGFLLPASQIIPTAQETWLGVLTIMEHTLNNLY
Put plainly: Hydrolysis kinetics in carboxypeptidase A solution. Type of data set: in vitro ADME, bovine. The settings on record: 50 mM phosphate buffer pH 7.4, 37° C., carboxypeptidase A 1 U/ml. As for the experimental part:
as §1, §2, §3

As for `CC[C@H](C)[C@H](NC(=O)[C@H](Cc1ccccc1)NC(=O)[C@H](CCC(=O)O)NC(=O)[C@H](CCCCN)NC(=O)[C@H](C)NC(=O)[C@H](C)NC(=O)[C@H](CCC(N)=O)NC(=O)CNC(=O)[C@H](CCC(=O)O)NC(=O)[C@H](CC(C)C)NC(=O)[C@H](Cc1ccc(O)cc1)NC(=O)[C@H](CO)NC(=O)[C@H](CO)NC(=O)[C@@H](NC(=O)[C@H](CC(=O)O)NC(=O)[C@H](CO)NC(=O)[C@@H](NC(=O)[C@H](Cc1ccccc1)NC(=O)[C@@H](NC(=O)CNC(=O)[C@H](CCC(=O)O)NC(=O)[C@H](C)NC(=O)[C@@H](N)Cc1c[nH]cn1)[C@@H](C)O)[C@@H](C)O)C(C)C)C(=O)N[C@@H](C)C(=O)N[C@@H](Cc1c[nH]c2ccccc12)C(=O)N[C@@H](CC(C)C)C(=O)N[C@H](C(=O)N[C@@H](CCCCN)C(=O)NCC(=O)N[C@@H](CCCNC(=N)N)C(=O)N[C@@H](CCCCN)C(=O)N[C@@H](CCCCN)C(=O)N[C@@H](CCCCN)C(=O)N[C@@H](CCCCN)C(=O)N[C@@H](CCCCN)C(=O)N[C@@H](CCCCN)C(=O)O)C(C)C` [GLP-1(7-36)(Human)-(Lys)6-OH, H-His-Ala-Glu-Gly-Thr-Phe-Thr-Ser-Asp-Val-Ser-Ser-Tyr-Leu -Glu-Gly-Gln-Ala-Ala-Lys-Glu-Phe-Ile-Ala-Trp-Leu-Val-Lys-Gly-Arg-(Lys)6-OH], in data set [1], the “pseudo first-order rate constant for the degradation” value (shortened to “pseudo first-order rate constant”) came to 0.013 min⁻¹ and the half-life came to 0.883 h. In data set [2], the half-life came out at 1.45 h and the “pseudo first-order rate constant” value was 0.008 min⁻¹.

In the case of `CC[C@H](C)[C@H](NC(=O)[C@H](Cc1ccccc1)NC(=O)[C@H](CCC(=O)O)NC(=O)[C@H](CCCCN)NC(=O)[C@H](C)NC(=O)[C@H](C)NC(=O)[C@H](CCC(N)=O)NC(=O)CNC(=O)[C@H](CCC(=O)O)NC(=O)[C@H](CC(C)C)NC(=O)[C@H](Cc1ccc(O)cc1)NC(=O)[C@H](CO)NC(=O)[C@H](CO)NC(=O)[C@@H](NC(=O)[C@H](CC(=O)O)NC(=O)[C@H](CO)NC(=O)[C@@H](NC(=O)[C@H](Cc1ccccc1)NC(=O)[C@@H](NC(=O)CNC(=O)[C@H](CCC(=O)O)NC(=O)[C@H](C)NC(=O)[C@@H](N)Cc1c[nH]cn1)[C@@H](C)O)[C@@H](C)O)C(C)C)C(=O)N[C@@H](C)C(=O)N[C@@H](Cc1c[nH]c2ccccc12)C(=O)N[C@@H](CC(C)C)C(=O)N[C@H](C(=O)N[C@@H](CCCCN)C(=O)NCC(=O)N[C@@H](CCCNC(=N)N)C(=O)O)C(C)C` [GLP-1(7-36)(Human)-OH, H-His-Ala-Glu-Gly-Thr-Phe-Thr-Ser-Asp-Val-Ser-Ser-Tyr-Leu -Glu-Gly-Gln-Ala-Ala-Lys-Glu-Phe-Ile-Ala-Trp-Leu-Val-Lys-Gly-Arg-OH, reference compound], the half-life turned out to be 0.367 h in data set [1] and 2.47 h in data set [2]. Also, the “pseudo first-order rate constant” value in data set [2] was 0.0047 min⁻¹.

With `CC(C)C[C@@H]1NC(=O)[C@@H]2CCCN2C(=O)CNC(=O)[C@H](Cc2ccccc2)NC(=O)[C@H](Cc2c[nH]cn2)NC(=O)[C@@H](NC(=O)[C@H](CO)NC(=O)[C@H](Cc2ccc(O)cc2)NC(=O)[C@@H](NC(=O)CNC(=O)CNC(=O)[C@H](CCCCN)NC(=O)[C@H](CCCCN)NC(=O)[C@H](CCCCN)NC(=O)[C@H](CCCCN)NC(=O)[C@H](CCCCN)NC(=O)[C@@H](N)CCCCN)[C@@H](C)O)CSSC[C@@H](C(=O)N[C@@H](CCCCN)C(=O)N2CCC[C@H]2C(=O)N[C@@H](CCC(N)=O)C(=O)NCC(=O)NCC(=O)O)NC(=O)[C@H](C(C)C)NC(=O)[C@H](Cc2c[nH]c3ccccc23)NC(=O)[C@H]([C@@H](C)O)NC1=O` [(Lys)6-EMP-1-OH, H-(Lys)6-Gly-Gly-Thr-Tyr-Ser-Cys-His-Phe-Gly-Pro-Leu -Thr-Trp-Val-Cys-Lys-Pro-Gln-Gly-Gly-OH] (H-KKKKKKGGTYSCHFGPLTWVCKPQGG-OH; disulfide 12-21), the half-life in data set [1] is > 24 h.

For “H-RPKPQQFFGLMKKKKKK-NH2 [Substance P-(Lys)6-NH2, H-Arg-Pro-Lys-Pro-Gln-Gln-Phe-Phe-Gly-Leu-Met-Lys6 -NH2]”, in data set [1], the “pseudo first-order rate constant” value is 0.011 min⁻¹ and the half-life was determined as 1.1 h. For the same compound, in data set [2], the half-life turned out to be 2.1 h and the “pseudo first-order rate constant” value was 0.0055 min⁻¹.

Consider `CC(C)C[C@H](NC(=O)[C@H](Cc1ccccc1)NC(=O)CNC(=O)CNC(=O)[C@@H](N)Cc1ccc(O)cc1)C(=O)N[C@@H](CCN)C(=O)N[C@@H](CCN)C(=O)N[C@@H](CCN)C(=O)N[C@@H](CCN)C(=O)N[C@@H](CCN)C(=O)N[C@@H](CCN)C(=O)O` [Leu-Enkephalin-(Dbu)6-OH, H-Tyr-Gly-Gly-Phe-Leu-(Dbu)6-OH] (H-YGGFL[Dab][Dab][Dab][Dab][Dab][Dab]-OH), for which, in data set [1], the “pseudo first-order rate constant” value stood at 0.025 min⁻¹ and the half-life stood at 0.467 h. Also, in data set [2], the half-life is 23.1 h and the “pseudo first-order rate constant” value was determined as 0.005 min⁻¹.

As for `CC(C)C[C@@H]1NC(=O)[C@@H]2CCCN2C(=O)CNC(=O)[C@H](Cc2ccccc2)NC(=O)[C@H](Cc2c[nH]cn2)NC(=O)[C@@H](NC(=O)[C@H](CO)NC(=O)[C@H](Cc2ccc(O)cc2)NC(=O)[C@@H](NC(=O)CNC(=O)CNC(=O)[C@H](CCCCN)NC(=O)[C@H](CCCCN)NC(=O)[C@H](CCCCN)NC(=O)[C@H](CCCCN)NC(=O)[C@H](CCCCN)NC(=O)[C@@H](N)CCCCN)[C@@H](C)O)CSSC[C@@H](C(=O)N[C@@H](CCCCN)C(=O)N2CCC[C@H]2C(=O)N[C@@H](CCC(N)=O)C(=O)NCC(=O)NCC(=O)N[C@@H](CCCCN)C(=O)N[C@@H](CCCCN)C(=O)N[C@@H](CCCCN)C(=O)N[C@@H](CCCCN)C(=O)N[C@@H](CCCCN)C(=O)N[C@@H](CCCCN)C(=O)O)NC(=O)[C@H](C(C)C)NC(=O)[C@H](Cc2c[nH]c3ccccc23)NC(=O)[C@H]([C@@H](C)O)NC1=O` [(Lys)6-EMP-1-(Lys)6-OH, H-(Lys)6-Gly-Gly-Thr-Tyr-Ser-Cys-His-Phe-Gly-Pro-Leu-Thr -Trp-Val-Cys-Lys-Pro-Gln-Gly-Gly-(Lys)6-OH] (H-KKKKKKGGTYSCHFGPLTWVCKPQGGKKKKKK-OH; disulfide 12-21), in data set [1], the half-life was > 100 h.

Turning to “H-KKKKKKYGGFL-OH [(Lys)6-Leu-Enkephalin-OH, H-Lys6 Tyr-Gly-Gly-Phe-Leu-OH]”, in data set [1], the “pseudo first-order rate constant” value is 0.026 min⁻¹ and the half-life is 0.45 h.

Consider “H-YGGFLKEEEKK-OH [Leu-Enkephalin-Lys-(Glu)3-(Lys)2-OH, H-Tyr-Gly-Gly-Phe-Leu-Lys-(Glu)3-(Lys)2-OH]”, for which, in data set [1], the “pseudo first-order rate constant” value is 0.12 min⁻¹ and the half-life amounted to 0.095 h. Moreover, in data set [2], the half-life was 14.4 h and the “pseudo first-order rate constant” value stood at 0.0008 min⁻¹.

On to “KKKKKKYGGFLKKKKKK [(Lys)6-Leu-Enkephalin-(Lys)6-OH, H-Lys6-Tyr-Gly-Gly-Phe-Leu-Lys6 OH]”, for which, in data set [1], the half-life was > 100 h.

Consider “WAGGDASGE [DSIP, H-Trp-Ala-Gly-Gly-Asp-Ala-Ser-Gly-GIu-OH, reference compound]”, for which, in data set [1], the half-life was < 0.333 h.

On to “H-WAGGDASGEKEKEKE-OH [DSIP-(Lys-Glu)3-OH, H-Trp-Ala-Gly-Gly-Asp-Ala-Ser-Gly-Glu-(Lys-Glu)3-OH]”, for which, in data set [1], the half-life turned out to be 2.42 h.
